In patent publication US10259808B2 (Genentech, Inc., priority 2015, dated 2019):
Like-named read-outs stand apart in the source and are kept apart here.

Molecular target: T1, RORc ligand binding domain (Homo sapiens, UniProt P51449)
T1 sequence (P51449 269-508 limits assumed): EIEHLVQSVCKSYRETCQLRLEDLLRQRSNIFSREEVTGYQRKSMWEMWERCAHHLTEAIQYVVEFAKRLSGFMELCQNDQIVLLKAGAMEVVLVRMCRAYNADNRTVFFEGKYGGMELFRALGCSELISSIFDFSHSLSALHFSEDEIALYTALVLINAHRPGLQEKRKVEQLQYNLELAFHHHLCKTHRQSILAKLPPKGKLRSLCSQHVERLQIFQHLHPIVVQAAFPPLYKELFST
Experiment: In vitro RORc ligand binding assay (25-[3H]hydroxycholesterol displacement)

Row | SMILES | IC50 [nM] | IC50 (IC50 values for RORc) [nM]
1 | C[C@H]1CC[C@H](c2ccccc2)S(=O)(=O)N1Cc1cc(F)c([C@]2(c3nc(CO)n[nH]3)C[C@](C)(O)C2)cc1F (racemic) [Example 186, 3-[2,5-difluoro-4-[[rac-(3S,6R)-3-methyl-1,1-dioxo-6-phenyl-thiazinan-2-yl]methyl]phenyl]-3-[3-(hydroxymethyl)-1H-1,2,4-triazol-5-yl]-1-methyl-cyclobutanol] | 4.4 | –
2 | C[C@H]1CC[C@H](c2ccccc2)S(=O)(=O)N1Cc1cc(F)c(C2(c3nnc[nH]3)CC(=O)C2)cc1F [Example 113, 3-[2,5-difluoro-4-[[(3S,6R)-3-methyl-1,1-dioxo-6-phenyl-thiazinan-2-yl]methyl]phenyl]-3-(4H-1,2,4-triazol-3-yl)cyclobutanone] | 8.1 | –
3 | C[C@H]1CC[C@H](c2ccccc2)S(=O)(=O)N1Cc1cc(F)c(C2(c3nnc[nH]3)CC(F)(F)C2)cc1F [Example 114, (3S,6R)-2-[[4-[3,3-difluoro-1-(4H-1,2,4-triazol-3-yl)cyclobutyl]-2,5-difluoro-phenyl]methyl]-3-methyl-6-phenyl-thiazinane 1,1-dioxide] | 3.6 | –
4 | C[C@H]1CC[C@H](c2ccccc2)S(=O)(=O)N1Cc1ccc(C2(N3C=NC(=O)/C3=C\O)CCOCC2)cc1F [Example 69, (5E)-1-[4-[3-fluoro-4-[[(3S,6R)-3-methyl-1,1-dioxo-6-phenyl-thiazinan-2-yl]methyl]phenyl]tetrahydropyran-4-yl]-5-(hydroxymethylene)imidazol-4-one] | 83.3 | –
5 | C[C@H]1CC[C@H](c2ccccc2)S(=O)(=O)N1Cc1cc(F)c(C2(c3c[nH]c(=O)o3)CC(O)C2)cc1F (mixture of isomers) [Example 163, 5-[1-[2,5-difluoro-4-[[rac-(3S,6R)-3-methyl-1,1-dioxo-6-phenyl-thiazinan-2-yl]methyl]phenyl]-3-hydroxy-cyclobutyl]-3H-oxazol-2-one] | – | 4.3
6 | C[C@H]1CC[C@H](c2ccccc2)S(=O)(=O)N1Cc1ccc(C2(NCc3ncnn3C)CCOCC2)cc1F [Example 55, 4-[3-fluoro-4-[[(3S,6R)-3-methyl-1,1-dioxo-6-phenyl-thiazinan-2-yl]methyl]phenyl]-N-[(2-methyl-1,2,4-triazol-3-yl)methyl]tetrahydropyran-4-amine] | 10.7 | –
7 | C[C@H]1CC[C@H](c2ccccc2)S(=O)(=O)N1Cc1cc(F)c(C2(NCc3cnco3)COC2)cc1F [Example 100, 3-[2,5-difluoro-4-[[(3S,6R)-3-methyl-1,1-dioxo-6-phenyl-thiazinan-2-yl]methyl]phenyl]-N-(oxazol-5-ylmethyl)oxetan-3-amine] | 34.1 | –
8 | Cc1cc(C(=O)NC2(c3cc(F)c(CN4[C@@H](C)CC[C@H](c5ccccc5)S4(=O)=O)cc3F)CCOCC2)no1 [Example 93, N-[4-[2,5-difluoro-4-[[(3,6R)-3-methyl-1,1-dioxo-6-phenyl-thiazinan-2-yl]methyl]phenyl]tetrahydropyran-4-yl]-5-methyl-isoxazole-3-carboxamide] | 44 | –
9 | C[C@H]1CC[C@H](c2ccccc2)S(=O)(=O)N1Cc1ccc(C2(C(=O)NCC3CCOC3)CCOCC2)cc1F (stereo partly drawn) [Example 11] | 161 | –
10 | C[C@H]1CC[C@H](c2ccccc2)S(=O)(=O)N1Cc1ccc(C2(c3noc(CN(C)C)n3)CCOCC2)cc1F [Example 28, 1-[3-[4-[3-fluoro-4-[[(3S,6R)-3-methyl-1,1-dioxo-6-phenyl-thiazinan-2-yl]methyl]phenyl]tetrahydropyran-4-yl]-1,2,4-oxadiazol-5-yl]-N,N-dimethyl-methanamine] | 465 | –
11 | Cc1cncc(C(=O)NC2(c3cc(F)c(CN4[C@@H](C)CC[C@H](c5ccccc5)S4(=O)=O)cc3F)COC2)n1 [Example 109, N-[3-[2,5-difluoro-4-[[(3S,6R)-3-methyl-1,1-dioxo-6-phenyl-thiazinan-2-yl]methyl]phenyl]oxetan-3-yl]-6-methyl-pyrazine-2-carboxamide] | 112 | –
12 | C[C@H]1CC[C@H](c2ccccc2)S(=O)(=O)N1Cc1cc(F)c(C2(Nc3cnccn3)COC2)cc1F [Example 105, N-[3-[2,5-difluoro-4-[[(3S,6R)-3-methyl-1,1-dioxo-6-phenyl-thiazinan-2-yl]methyl]phenyl]oxetan-3-yl]pyrazin-2-amine] | 2.2 | –
13 | C[C@H]1CC[C@H](c2ccccc2)S(=O)(=O)N1Cc1cc(F)c(C2(NC(=O)c3ccon3)CCOCC2)cc1F [Example 107, N-[4-[2,5-difluoro-4-[[(3S,6R)-3-methyl-1,1-dioxo-6-phenyl-thiazinan-2-yl]methyl]phenyl]tetrahydropyran-4-yl]isoxazole-3-carboxamide] | 2.7 | –
14 | C[C@H]1CC[C@H](c2ccccc2)S(=O)(=O)N1Cc1cc(F)c(C2(NC[C@@H]3CCC(=O)N3)COC2)cc1F [Example 111, (5S)-5-[[[3-[2,5-difluoro-4-[[(3S,6R)-3-methyl-1,1-dioxo-6-phenyl-thiazinan-2 yl]methyl]phenyl]oxetan-3-yl]amino]methyl]pyrrolidin-2-one] | 89.8 | –
15 | C[C@H]1CC[C@H](c2ccccc2)S(=O)(=O)N1Cc1cc(F)c(C2(c3nn(C)c(=O)o3)CCOCC2)cc1F [Example 140, 5-[4-[2,5-difluoro-4-[[(3S,6R)-3-methyl-1,1-dioxo-6-phenyl-thiazinan-2-yl]methyl]phenyl]tetrahydropyran-4-yl]-3-methyl-1,3,4-oxadiazol-2-one] | 12.8 | –
16 | Cc1cc(NC(=O)C2(c3ccc(CN4[C@@H](C)CC[C@H](c5ccccc5)S4(=O)=O)c(F)c3)CCOCC2)n(C)n1 (stereo in doubt) [Example 14, N-(2,5-dimethylpyrazol-3-yl)-4-[3-fluoro-4-[[(3S,6R)-3-methyl-1,1-dioxo-6-phenyl-thiazinan-2-yl]methyl]phenyl]tetrahydropyran-4-carboxamide] | 63.6 | –
17 | C[C@H]1CC[C@H](c2ccccc2)S(=O)(=O)N1Cc1cc(F)c(C2(c3c[nH]c(=O)o3)CC(O)C2)cc1F (mixture of isomers) [Example 177, 5-[1-[2,5-difluoro-4-[[rac-(3S,6R)-3-methyl-1,1-dioxo-6-phenyl-thiazinan-2-yl]methyl]phenyl]-3-hydroxy-cyclobutyl]-3H-oxazol-2-one] | – | 4.3
18 | C[C@H]1CC[C@H](c2ccccc2)S(=O)(=O)N1Cc1cc(F)c([C@]2(c3nn(C)c(=O)o3)C[C@H](O)C2)cc1F [Example 147, trans 5-[1-[2,5-difluoro-4-[[(3S,6R)-3-methyl-1,1-dioxo-6-phenyl-thiazinan-2-yl]methyl]phenyl]-3-hydroxy-cyclobutyl]-3-methyl-1,3,4-oxadiazol-2-one] | 4.6 | –
19 | Cc1nn(C)cc1CNC1(c2cc(F)c(CN3[C@@H](C)CC[C@H](c4ccccc4)S3(=O)=O)cc2F)COC1 [Example 135, 3-[2,5-difluoro-4-[[(3S,6R)-3-methyl-1,1-dioxo-6-phenyl-thiazinan-2-yl]methyl]phenyl]-N-[(1,3-dimethylpyrazol-4-yl)methyl]oxetan-3-amine] | 201 | –
20 | C[C@H]1CC[C@H](c2ccccc2)S(=O)(=O)N1Cc1cc(F)c(C2(c3c[nH]c(=O)o3)CC(O)(CC3CC3)C2)cc1F (mixture of isomers) [Example 184, 5-[3-(cyclopropylmethyl)-1-[2,5-difluoro-4-[[rac-(3S,6R)-3-methyl-1,1-dioxo-6-phenyl-thiazinan-2-yl]methyllphenyl]-3-hydroxy-cyclobutyl]-3H-oxazol-2-one] | 6.2 | –
21 | C[C@H]1CC[C@H](c2ccccc2)S(=O)(=O)N1Cc1cc(F)c(C2(NC(=O)Cc3ccon3)CCOCC2)cc1F [Example 104, N-[4-[2,5-difluoro-4-[[(3S,6R)-3-methyl-1,1-dioxo-6-phenyl-thiazinan-2-yl]methyl]phenyl]tetrahydropyran-4-yl]-2-isoxazol-3-yl-acetamide] | 2.6 | –
22 | C[C@H]1CC[C@H](c2ccccc2)S(=O)(=O)N1Cc1cc(F)c(C2(NC(=O)c3cc(=O)[nH]o3)COC2)cc1F [Example 106, N-[3-[2,5-difluoro-4-[[(3S,6R)-3-methyl-1,1-dioxo-6-phenyl-thiazinan-2-yl]methyl]phenyl]oxetan-3-yl]-3-oxo-isoxazole-5-carboxamide] | 5.1 | –
23 | Cc1nnc(C2(c3cc(F)c(CN4[C@@H](C)CC[C@H](c5ccccc5)S4(=O)=O)cc3F)CC2)[nH]1 [Example 49, (3S,6R)-2-[[2,5-difluoro-4-[1-(5-methyl-4H-1,2,4-triazol-3-yl)cyclopropyl]phenyl]methyl]-3-methyl-6-phenyl-thiazinane 1,1-dioxide] | 40.4 | –
24 | C[C@H]1CC[C@H](c2ccccc2)S(=O)(=O)N1Cc1cc(F)c(C2(NC(=O)Cc3ccon3)COC2)cc1F [Example 94, N-[3-[2,5-difluoro-4-[[(3S,6R)-3-methyl-1,1-dioxo-6-phenyl-thiazinan-2-yl]methyl]phenyl]oxetan-3-yl]-2-isoxazol-3-yl-acetamide] | 17.9 | –
25 | C[C@H]1CC[C@H](c2ccccc2)S(=O)(=O)N1Cc1cc(F)c(C2(C(=O)N3CCOCC3)CCOCC2)cc1F [Example 37, [4-[2,5-difluoro-4-[[(3S,6R)-3-methyl-1,1-dioxo-6-phenyl-thiazinan-2-yl]methyl]phenyl]tetrahydropyran-4-yl]-morpholino-methanone] | 106 | –
26 | C[C@H]1CC[C@H](c2ccccc2)S(=O)(=O)N1Cc1cc(F)c([C@]2([C@H](O)Cc3ncn[nH]3)C[C@](C)(O)C2)cc1F (racemic) [Example 171, 3-[2,5-difluoro-4-[[rac-(3S,6R)-3-methyl-1,1-dioxo-6-phenyl-thiazinan-2-yl]methyl]phenyl]-1-methyl-3-[rac-(1R)-1-hydroxy-2-(1H-1,2,4-triazol-5-yl)ethyl]cyclobutanol] | 50.3 | –
27 | CNc1nnc(C2(c3cc(F)c(CN4[C@@H](C)CC[C@H](c5ccccc5)S4(=O)=O)cc3F)CCOCC2)o1 [Example 90, 5-[4-[2,5-difluoro-4-[[(3S,6R)-3-methyl-1,1-dioxo-6-phenyl-thiazinan-2-yl]methyl]phenyl]tetrahydropyran-4-yl]-N-methyl-1,3,4-oxadiazol-2-amine] | 13.7 | –
